What all share (assay type): in vivo
In one assay the test system is Veronica persica. Put plainly: Pre-emergence herbicidal action against harmful plants. The conditions noted are these: 504 h, application rate 320 g/ha, scored visually after 3 weeks vs untreated controls, read-out: herbicidal activity in percent. An excerpt: (§1) 1. Pre-Emergence Herbicidal Action Against Harmful Plants
(§2) Seeds of monocotyledonous and dicotyledonous weed plants and crop plants are laid out in wood-fiber pots in sandy loam and covered with soil. The compounds of the invention, formulated in the form of wettable powders (WP) or as emulsion concentrates (EC), are then applied to the surface of the covering soil in the form of an aqueous suspension or emulsion at a water application rate equating to 600 to 800 l/ha, with addition of 0.2% wetting agent. After the treatment, the pots are placed in a greenhouse and kept under good growth conditions for the trial plants. The damage to the test plants is scored visually after a test period of 3 weeks by comparison with untreated controls (herbicidal activity in percent (%): 100% activity=the plants have died, 0% activity=like control plants). Here, for example, the compounds Nos. 1-145, 1-385, 3-385, 4-145, 4-385, 6-385, 7-145, 7-385 and 9-385, at an application rate of 320 g/ha, each show an activity of at least 80% against Stellaria media and Veronica persica.

The test system of assay [1] is Stellaria media. The assay is described as above. The settings on record: 504 h, application rate 320 g/ha, scored visually after 3 weeks vs untreated controls, read-out: herbicidal activity in percent.
Text: as §1, §2

Assay [2] relates to Stellaria media. Put plainly: Post-emergence herbicidal action against harmful plants. The settings on record: 504 h, application rate 80 g/ha, assessed visually after about 3 weeks vs untreated controls, read-out: herbicidal action in percent. Here is the method:
(§3) 2. Post-Emergence Herbicidal Action Against Harmful Plants
(§4) Seeds of monocotyledonous and dicotyledonous weed and crop plants are laid out in sandy loam soil in wood-fiber pots, covered with soil and cultivated in a greenhouse under good growth conditions. 2 to 3 weeks after sowing, the test plants are treated at the one-leaf stage. The compounds of the invention, formulated in the form of wettable powders (WP) or as emulsion concentrates (EC), are then sprayed onto the green parts of the plants in the form of an aqueous suspension or emulsion at a water application rate equating to 600 to 800 l/ha, with addition of 0.2% wetting agent. After the test plants have been left to stand in the greenhouse under optimal growth conditions for about 3 weeks, the action of the preparations is assessed visually in comparison to untreated controls (herbicidal action in percent (%): 100% activity=the plants have died, 0% activity=like control plants). Here, for example, the compounds Nos. 1-145, 1-385, 3-385, 4-145, 4-385, 6-385, 7-145, 7-385 and 9-385, at an application rate of 80 g/ha, each show an activity of at least 80% against Stellaria media and Amaranthus retroflexus.

The subject of the next assay is Amaranthus retroflexus. The description is as above. The settings on record: 504 h, application rate 80 g/ha, assessed visually after about 3 weeks vs untreated controls, read-out: herbicidal action in percent. Here is the method:
as §3, §4

For assay [3], the system named is Alopecurus myosuroides (ALOMY). Description: Comparative experiment in pre-emergence. The settings on record: dosage 80 g/ha, 100% = plants have died, 0% = like control plants.
Text: as §2
3. Comparative Experiment in Pre-Emergence
For comparative purposes, the herbicidal activity of some compounds according to the invention and the most structurally similar compounds known from the prior art were tested.

On to `CCOC(=O)OC(C)OC(=Nc1nnc(C)o1)c1ccc(C(F)(F)F)c([S+](C)[O-])c1Cl` (stereo not shown) [Compound No. 7-385, 1-[(ethoxycarbonyl)oxy]ethyl-2-chloro-N-(5-methyl-1,3,4-oxadiazol-2-yl)-3-(methylsulfinyl)-4-(trifluoromethyl)benzenecarboximidate], for which the pest or weed control at 320 g/ha in the assay with Veronica persica and in the assay on Stellaria media [1] was no less than 80% throughout. The pest or weed control at 80 g/ha in the assay with Stellaria media [2] and in the assay on Amaranthus retroflexus was no less than 80% each time. Moreover, the “Herbicidal activity against ALOMY” value in assay [3] is 90%.
On to `Cc1nn(C(C)OC(=O)OC2CCCCC2)c(=NC(=O)c2ccc(C(F)(F)F)c([S+](C)[O-])c2Cl)o1` (stereo not shown) [Compound No. 6-385, 1-[2-{[2-chloro-3-(methylsulfinyl)-4-(trifluoromethyl)benzoyl]imino}-5-methyl-1,3,4-oxadiazol-3(2H)-yl]ethyl cyclohexyl carbonate], for which the pest or weed control at 320 g/ha with Veronica persica and with Stellaria media [1] was no less than 80% each time. Moreover, the pest or weed control at 80 g/ha in the assay on Stellaria media [2] and with Amaranthus retroflexus was no less than 80% throughout.
On to `Cc1nnc(N(C(=O)c2ccc(C(F)(F)F)c([S+](C)[O-])c2Cl)C(C)OC(=O)OC2CCCCC2)o1` (stereo not shown) [Compound No. 3-385, 1-{[2-chloro-3-(methylsulfinyl)-4-(trifluoromethyl)benzoyl](5-methyl-1,3,4-oxadiazol-2-yl)amino}ethyl cyclohexyl carbonate], for which the pest or weed control at 320 g/ha in the assay with Veronica persica and with Stellaria media [1] was no less than 80% throughout. For the same compound, the pest or weed control at 80 g/ha with Stellaria media [2] and in the assay on Amaranthus retroflexus was no less than 80% in each case. The “Herbicidal activity against ALOMY” value in assay [3] is listed as 100%.
In the case of `CCOC(=O)OC(C)N(C(=O)c1ccc(C(F)(F)F)c([S+](C)[O-])c1Cl)c1nnc(C)o1` (stereo not shown) [Compound No. 1-385, 1-{[2-chloro-3-(methylsulfinyl)-4-(trifluoromethyl)benzoyl](5-methyl-1,3,4-oxadiazol-2-yl)amino}ethyl ethyl carbonate], the pest or weed control at 320 g/ha in the assay with Veronica persica and in the assay with Stellaria media [1] was no less than 80% each time. Also, the pest or weed control at 80 g/ha with Stellaria media [2] and with Amaranthus retroflexus was no less than 80% in each case.
For `CCOC(=O)OC(C)OC(=Nc1nnc(C)o1)c1ccc(C(F)(F)F)c(S(C)(=O)=O)c1C` (stereo not shown) [Compound No. 7-145, 1-[(ethoxycarbonyl)oxy]ethyl-2-methyl-N-(5-methyl-1,3,4-oxadiazol-2-yl)-3-(methylsulfonyl)-4-(trifluoromethyl)benzenecarboximidate], the pest or weed control at 320 g/ha with Veronica persica and in the assay on Stellaria media [1] was no less than 80% each time. In addition, the pest or weed control at 80 g/ha in the assay with Stellaria media [2] and in the assay on Amaranthus retroflexus was no less than 80% each time.
As for `CCOC(=O)OC(C)n1nc(C)oc1=NC(=O)c1ccc(C(F)(F)F)c(S(C)(=O)=O)c1C` (stereo not shown) [Compound No. 4-145, ethyl 1-[5-methyl-2-{[2-methyl-3-(methylsulfonyl)-4-(trifluoromethyl)benzoyl]imino}-1,3,4-oxadiazol-3(2H)-yl]ethyl carbonate], the pest or weed control at 320 g/ha in the assay with Veronica persica and with Stellaria media [1] was no less than 80% each time. For the same compound, the pest or weed control at 80 g/ha in the assay on Stellaria media [2] and in the assay on Amaranthus retroflexus was no less than 80% throughout.
Turning to `CCOC(=O)OC(C)N(C(=O)c1ccc(C(F)(F)F)c(S(C)(=O)=O)c1C)c1nnc(C)o1` (stereo not shown) [Compound No. 1-145, ethyl 1-{[2-methyl-3-(methylsulfonyl)-4-(trifluoromethyl)benzoyl](5-methyl-1,3,4-oxadiazol-2-yl)amino}ethyl carbonate], the pest or weed control at 320 g/ha with Veronica persica and in the assay with Stellaria media [1] was no less than 80% each time. The pest or weed control at 80 g/ha in the assay on Stellaria media [2] and in the assay with Amaranthus retroflexus was no less than 80% throughout. In assay [3], the “Herbicidal activity against ALOMY” value stood at 100%.
For `CCOC(=O)OC(C)n1nc(C)oc1=NC(=O)c1ccc(C(F)(F)F)c([S+](C)[O-])c1Cl` (stereo not shown) [Compound No. 4-385, ethyl 1-[5-methyl-2-{[2-chloro-3-(methylsulfinyl)-4-(trifluoromethyl)benzoyl]imino}-1,3,4-oxadiazol-3(2H)-yl]ethyl carbonate], the pest or weed control at 320 g/ha with Veronica persica and in the assay on Stellaria media [1] was no less than 80% in each case. The pest or weed control at 80 g/ha in the assay with Stellaria media [2] and in the assay on Amaranthus retroflexus was no less than 80% throughout.
For the compound `Cc1nnc(N=C(OC(C)OC(=O)OC2CCCCC2)c2ccc(C(F)(F)F)c([S+](C)[O-])c2Cl)o1` (stereo not shown) [Compound No. 9-385, 1-{[(cyclohexyloxy)carbonyl]oxy}ethyl-2-chloro-N-(5-methyl-1,3,4-oxadiazol-2-yl)-3-(methylsulfinyl)-4-(trifluoromethyl)benzenecarboximidate], the pest or weed control at 320 g/ha in the assay with Veronica persica and in the assay with Stellaria media [1] was no less than 80% in each case. For the same compound, the pest or weed control at 80 g/ha in the assay on Stellaria media [2] and in the assay with Amaranthus retroflexus was no less than 80% in each case. In addition, the “Herbicidal activity against ALOMY” value in assay [3] was determined as 90%.

The values are drawn from patent US10556874B2, “N-(1,3,4-oxadiazol-2-yl)aryl carboxamide derivatives with herbicidal action” (Bayer CropScience Aktiengesellschaft, priority 2015, dated 2020).
